Reference: BindingDB's records for doi:10.1016/j.bmc.2015.03.047 (Shanghai Institute of Technology, 2015)

Target: Rho-associated protein kinase 2 (Homo sapiens, UniProt O75116)
Assay: Inhibition of ROCK2 (unknown origin) using STK2 substrate after 4 hrs by HTRF mode

Sequence of Rho-associated protein kinase 2 (O75116 whole entry): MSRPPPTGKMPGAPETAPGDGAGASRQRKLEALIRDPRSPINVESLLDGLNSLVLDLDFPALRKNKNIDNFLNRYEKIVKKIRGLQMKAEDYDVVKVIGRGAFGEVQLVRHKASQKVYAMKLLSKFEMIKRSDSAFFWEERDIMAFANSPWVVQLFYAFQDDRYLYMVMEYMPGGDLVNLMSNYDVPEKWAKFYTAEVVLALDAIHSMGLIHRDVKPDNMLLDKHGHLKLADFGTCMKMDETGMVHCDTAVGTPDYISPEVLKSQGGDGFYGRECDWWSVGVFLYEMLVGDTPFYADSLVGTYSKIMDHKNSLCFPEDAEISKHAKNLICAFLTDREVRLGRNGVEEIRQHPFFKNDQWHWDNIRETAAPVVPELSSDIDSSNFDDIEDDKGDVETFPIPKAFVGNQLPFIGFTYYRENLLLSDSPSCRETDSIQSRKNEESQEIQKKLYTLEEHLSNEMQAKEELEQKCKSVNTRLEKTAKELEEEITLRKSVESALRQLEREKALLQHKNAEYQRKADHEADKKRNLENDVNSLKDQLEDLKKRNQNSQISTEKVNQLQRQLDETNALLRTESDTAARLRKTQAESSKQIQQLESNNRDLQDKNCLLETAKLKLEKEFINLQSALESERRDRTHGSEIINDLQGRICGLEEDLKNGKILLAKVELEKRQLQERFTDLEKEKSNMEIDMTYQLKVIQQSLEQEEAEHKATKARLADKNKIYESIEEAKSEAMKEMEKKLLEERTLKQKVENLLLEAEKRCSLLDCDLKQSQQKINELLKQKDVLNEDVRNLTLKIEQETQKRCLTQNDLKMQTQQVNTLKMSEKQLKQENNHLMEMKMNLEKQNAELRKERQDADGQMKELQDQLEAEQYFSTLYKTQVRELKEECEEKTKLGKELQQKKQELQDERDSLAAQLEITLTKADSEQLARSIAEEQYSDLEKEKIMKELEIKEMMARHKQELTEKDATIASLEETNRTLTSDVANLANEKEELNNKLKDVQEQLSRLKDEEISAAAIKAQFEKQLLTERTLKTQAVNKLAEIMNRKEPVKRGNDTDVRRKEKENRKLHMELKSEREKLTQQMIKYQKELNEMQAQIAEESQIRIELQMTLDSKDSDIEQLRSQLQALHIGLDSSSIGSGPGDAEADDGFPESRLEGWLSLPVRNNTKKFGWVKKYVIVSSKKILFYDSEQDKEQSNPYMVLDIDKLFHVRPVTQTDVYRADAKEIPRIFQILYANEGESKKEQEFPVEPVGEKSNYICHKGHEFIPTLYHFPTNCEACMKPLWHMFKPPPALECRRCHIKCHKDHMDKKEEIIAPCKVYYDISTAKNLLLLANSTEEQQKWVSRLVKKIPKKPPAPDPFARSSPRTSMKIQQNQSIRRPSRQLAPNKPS

Q: CNC(=O)N(CCO)c1ccc(-c2cn[nH]c2)cc1 was tested. Which IC50 did it give?
A: The IC50 was 751 nM.
